1 substance from patent US12005107B2, “Compositions comprising recombinant Bacillus cells and a fungicide” (priority 2014, dated 2024) can be followed below.

For the assay, the system named is Maize. As to the kind of experiment: Plant growth promotion, maize whole plant biomass after drench of growing media. It is filed as in vivo.

Regarding trifloxystrobin, the “Efficacy % (additional % of plant weight compared with untreated control, actual effect observed)” value (drench at planting, after 14 days) worked out at 1%. The “Found % (plant weight, 100% = untreated control)” value (drench at planting, after 14 days, relative to UTC) is recorded as 101%. In addition, the “Whole Plant Biomass” value (growing media drenched at planting, measured after 14 days, trifloxystrobin 0.024 mg/pot, BEE 7.85 × 10^8 CFU/pot) is 2.69 g.
